Test system: mouse MPTP toxin model
Assay: Mouse MPTP toxin model, striatal DA by HPLC and TH+ neuron counts after inhaled CO
Assay type: in vivo
Description: FIGS. 7A-C. Effect of single dose inhaled CO in the MPTP model. CO (225 ppm; 1 hr) or air (1 hr) administered 1 hr after MPTP or saline injection (normal control saline data not shown; no difference between groups in normal control animals). Animal sacrifice 5 days after MPTP. A. CO preserved striatal dopamine (DA) (P<0.03, t-test; 22 mice/grp). Striatal DA levels measured with HPLC, B. CO reduced loss of substantia nigra pars compacta (SNpc) tyrosine hydroxylase-positive (TH+) neurons. C. Stereological nigral TH+ neuron counts after CO treatment or air (P<0.05, t-test). Mean±std error.
We also employed a short-term regimen of the widely used^5253 MPTP toxin model in which DA loss ensues within 5-8 days of MPTP. We elected to initiate iCO treatment only after MPTP exposure in order to model protective treatment of human PD, which begins only after disease onset. We exposed mice to MPTP (40 mg/kg, i.p.)^54,55 or saline (study control) and then treated with a single dose of either iCO (225 ppm) or air (negative control) for 1 hr, for 4 total groups: 1) MPTP/CO (225 ppm; 1 hr), 2) MPTP/air (1 hr), 3) saline/CO (225 ppm; 1 hr), 4) saline/air (1 hr). Five days after MPTP exposure, we measured DA levels in the striata via HPLC and counted TH+ neurons in all groups. MPTP mice treated with CO had ˜46% higher DA levels than those treated with air (2-tailed t-test, p=0.028; FIG. 7A). […] Critically, for TH+ neurons, MPTP mice treated with iCO had ˜22% more TH+ neurons than those treated with air (p<0.05; FIGS. 7B-C).

[C-]#[O+] [CO, carbon monoxide]
striatal DA levels higher than air-treated MPTP mice (MPTP 40 mg/kg i.p., CO 225 ppm 1 hr, single dose 1 hr after MPTP, 5 days after MPTP, p=0.028): ~46% | more TH+ neurons than air-treated MPTP mice (MPTP 40 mg/kg i.p., iCO 225 ppm 1 hr, 5 days after MPTP, p<0.05): ~22% | striatal DA levels in saline-treated mice (saline instead of MPTP, iCO 225 ppm 1 hr, n=22 per group, p>0.05 vs air): 97.0 ± 2.4 pmol/mg | TH+ cell counts in saline-treated mice (saline instead of MPTP, iCO 225 ppm 1 hr, p>0.05 vs air): 7,437±545

Reference: patent US12370210B2, “Carbon monoxide as a treatment for neurodegenerative disease” (The General Hospital Corporation, priority 2019, dated 2025)
